In brackets after ≈: the same amount, converted by molar mass.
details: buffer; pH 7.4; 200.0 µM

Compound	solubility kinetic
CC(C)CN1CCN(CC#Cc2ccccc2)CC1CCO (stereo unspecified)	43.6 µg/mL (≈ 145 µM)
O=C(Nc1cc2c3c(c1)CC(=O)N3CCC2)c1ccc(Cl)cc1	6.6 µg/mL (≈ 20.2 µM)
O=C(c1ccccc1)C1CCN(C(=O)Nc2ccccc2)CC1	41.2 µg/mL (≈ 134 µM)
COc1ccccc1OCC(=O)O/N=C(\N)c1ccccn1	> 45.2 µg/mL
Cc1ccccc1NC(=O)C(=O)c1cn(C)c2ccccc12	< 0.3 µg/mL
C=CCn1c(O)c(C(C)=NCCc2c[nH]c3ccccc23)c(=O)[nH]c1=O	33.5 µg/mL (≈ 95.1 µM)
S=C(NCCc1ccccc1)Nc1ccccc1	31.5 µg/mL (≈ 123 µM)
CCc1ccc(NS(=O)(=O)c2cccc3nsnc23)cc1	40.5 µg/mL (≈ 127 µM)
CC(C)c1ccccc1-n1cc[nH]c1=S	> 32.7 µg/mL
COc1ccc(N2C(=O)c3ccccc3C(C)(C)C2=O)cc1	5.4 µg/mL (≈ 18.3 µM)
Cc1ccc2nc(/C(C#N)=C/c3ccccc3C(=O)O)[nH]c2c1	> 45.5 µg/mL
Nn1c(SCC(=O)Nc2ccc3c(c2)OCO3)nncc1=O	> 48.2 µg/mL
NC(=NCc1ccco1)NC(=O)c1ccccc1	> 36.5 µg/mL
CC1COc2ccccc2N1C(=O)c1ccccc1Cl (stereo unspecified)	> 43.2 µg/mL
O=C(OCc1cc(=O)n2ccsc2n1)c1ccc(O)cc1O	11.1 µg/mL (≈ 34.9 µM)
CCN(C(=O)COC(=O)c1cc(OC)ccc1Br)C1CCS(=O)(=O)C1 (stereo unspecified)	> 65.1 µg/mL
CSc1ncc(C(=O)Nc2ccc(Cl)cc2)c(C)n1	12.7 µg/mL (≈ 43.2 µM)
O=C(Nc1cc([N+](=O)[O-])ccc1Cl)c1cccnc1	26.4 µg/mL (≈ 95.1 µM)
Cc1ccccc1CC(=O)N1CCCC1	29.7 µg/mL (≈ 146 µM)
CCCCN(C(=O)c1c(C)noc1C)c1c(N)n(CCC)c(=O)[nH]c1=O	18.6 µg/mL (≈ 51.2 µM)
Cl.NCCSSCCN	31.6 µg/mL

Compound	solubility kinetic
O=C(CSCc1ccccc1Br)Nc1ccccc1	29.5 µg/mL (≈ 87.7 µM)
CN(C(=O)c1cccc(S(=O)(=O)NCc2ccccc2)c1)C1CCCCC1	50.7 µg/mL (≈ 131 µM)
Cc1ccccc1Nc1c([N+](=O)[O-])cncc1[N+](=O)[O-]	37.1 µg/mL (≈ 135 µM)
CC(C)(C)C(=O)OCc1nc(-c2ccc(C(F)(F)F)cc2)cs1	< 0.7 µg/mL
CCc1nc(SCC(=O)Nc2ccc(N(C)C)cc2)n[nH]1	> 45.8 µg/mL
CCOC(=O)c1ccc(N=Cc2c(O)c3ccccc3oc2=O)cc1	4.7 µg/mL (≈ 13.9 µM)
CCS(=O)(=O)c1ccc(O)c(NC(=O)/C=C/c2ccc(Cl)cc2)c1	3.9 µg/mL (≈ 10.7 µM)
O=C(NCCCNC(=O)c1cc(Cl)ccc1Cl)c1ccco1	44.3 µg/mL (≈ 130 µM)
Cc1ccc(CNC(=O)CCCc2ccccc2)cc1	9.2 µg/mL (≈ 34.4 µM)
O=c1c2c3c(sc2nc2n1CCCCC2)C(O)CCC3 (stereo unspecified)	> 43.6 µg/mL
COc1ccc(CNc2ccc([N+](=O)[O-])cc2C)cc1	2.1 µg/mL (≈ 7.71 µM)
COC(=O)c1cc(C)sc1NC(=O)c1ccco1	< 0.6 µg/mL
CN(Cc1cccc(Cl)c1)C(=O)C1CSC2(C)CCC(=O)N12 (stereo unspecified)	> 50.8 µg/mL
O=S(=O)(CCc1ccncc1)Cc1ccc2c3c(cccc13)CC2	11.8 µg/mL (≈ 35 µM)
Cc1ccc(SCCC(=O)Nc2nccs2)cc1	2.5 µg/mL (≈ 8.98 µM)
COc1ccc(Nc2cc(C)c3cc([N+](=O)[O-])ccc3n2)cc1	< 0.2 µg/mL
CCNC(=O)COC(=O)/C=C/c1cccc(F)c1	> 37.7 µg/mL
CCn1c(C)cc(C(=O)COC(=O)c2ccccc2[N+](=O)[O-])c1C	15.3 µg/mL (≈ 46.3 µM)
Cc1c(Cl)cccc1NC(=O)C1CCN(c2cnccn2)CC1	2.1 µg/mL (≈ 6.35 µM)
NC(Cc1c[nH]c2ccccc12)C(=O)NCc1ccccc1 (stereo unspecified)	39.1 µg/mL (≈ 133 µM)
O=C(COC(=O)Cc1ccc(S(=O)(=O)N2CCOCC2)s1)Nc1ccc(OC(F)F)cc1	63.7 µg/mL (≈ 130 µM)

Compound	solubility kinetic
COc1ccc(C2C(C(C)=O)=C(O)C(=O)N2c2ccc(C)cc2)cc1 (stereo unspecified)	> 50.6 µg/mL
COc1ccc2oc(C(=O)NC(C)(C)C)c(C)c2c1	1.8 µg/mL (≈ 6.89 µM)
CCn1c(/C=C/c2ccccc2Cl)nc2ccccc2c1=O	1.7 µg/mL (≈ 5.47 µM)
C=CCOC(=O)C1=C(C)NC(=O)NC1c1ccc(OCC)cc1 (stereo unspecified)	7.4 µg/mL (≈ 23.4 µM)
CCOc1ccccc1NC(=O)/C(C#N)=C/c1cccnc1	18.8 µg/mL (≈ 64.1 µM)
O=C(/C=C/c1ccc(Cl)cc1)OCC(=O)c1ccc[nH]1	2.2 µg/mL (≈ 7.59 µM)
N#Cc1cccc(NC(=O)Cc2ccsc2)c1	33.4 µg/mL (≈ 138 µM)
CNC(=S)N(Cc1ccc(Cl)cc1)Cc1cccs1	16 µg/mL (≈ 51.5 µM)
CC(C)(C)OC(=O)N1CCN(C(=O)c2cccnc2Cl)CC1	> 48.9 µg/mL
Nc1nc(C(c2ccccc2)c2ccccc2)cs1	11 µg/mL (≈ 41.3 µM)
CSc1ncccc1C(=O)NCCc1ccccc1F	> 43.6 µg/mL
O=C(Cc1ccccc1F)NCC1(N2CCOCC2)CCCCC1	> 50.2 µg/mL
Cc1onc(-c2c(F)cccc2Cl)c1C(O)c1ccc(F)cc1 (stereo unspecified)	> 50.4 µg/mL
CC(=O)c1ccc(S(=O)(=O)NC2CC2)cc1	26.1 µg/mL (≈ 109 µM)
CN(C)C(C)(C)C#CC(O)(c1ccccc1)c1ccccc1	> 44 µg/mL
COC(=O)C(C)Oc1ccc(-c2nccc(-c3ccccn3)n2)cc1 (stereo unspecified)	3.3 µg/mL (≈ 9.84 µM)
O=C(NCc1ccccn1)c1n[nH]c(=O)c2ccccc12	> 42 µg/mL
COc1ccc(Cl)cc1/C=C/c1ccc2cccc(O)c2n1	0.8 µg/mL (≈ 2.57 µM)
Cc1ccc(NC(=O)c2cnccn2)c(C)c1	32.7 µg/mL (≈ 144 µM)

Reference: PubChem BioAssay AID1996
